Measurements from patent publication US20220143042A1, “FUSED GLYCOSIDASE INHIBITORS” (Asceneuron SA, priority 2019, published 2022).

Each compound was assayed against T1, His-Tagged hOGA (Homo sapiens, UniProt O60502) (assay: Human O-GlcNAcase enzyme inhibition assay). Settings: OGA enzyme inhibition assay; FL-GlcNAc substrate, 60 min at room temperature, pH 6.5.
T1 sequence (O60502 1-916): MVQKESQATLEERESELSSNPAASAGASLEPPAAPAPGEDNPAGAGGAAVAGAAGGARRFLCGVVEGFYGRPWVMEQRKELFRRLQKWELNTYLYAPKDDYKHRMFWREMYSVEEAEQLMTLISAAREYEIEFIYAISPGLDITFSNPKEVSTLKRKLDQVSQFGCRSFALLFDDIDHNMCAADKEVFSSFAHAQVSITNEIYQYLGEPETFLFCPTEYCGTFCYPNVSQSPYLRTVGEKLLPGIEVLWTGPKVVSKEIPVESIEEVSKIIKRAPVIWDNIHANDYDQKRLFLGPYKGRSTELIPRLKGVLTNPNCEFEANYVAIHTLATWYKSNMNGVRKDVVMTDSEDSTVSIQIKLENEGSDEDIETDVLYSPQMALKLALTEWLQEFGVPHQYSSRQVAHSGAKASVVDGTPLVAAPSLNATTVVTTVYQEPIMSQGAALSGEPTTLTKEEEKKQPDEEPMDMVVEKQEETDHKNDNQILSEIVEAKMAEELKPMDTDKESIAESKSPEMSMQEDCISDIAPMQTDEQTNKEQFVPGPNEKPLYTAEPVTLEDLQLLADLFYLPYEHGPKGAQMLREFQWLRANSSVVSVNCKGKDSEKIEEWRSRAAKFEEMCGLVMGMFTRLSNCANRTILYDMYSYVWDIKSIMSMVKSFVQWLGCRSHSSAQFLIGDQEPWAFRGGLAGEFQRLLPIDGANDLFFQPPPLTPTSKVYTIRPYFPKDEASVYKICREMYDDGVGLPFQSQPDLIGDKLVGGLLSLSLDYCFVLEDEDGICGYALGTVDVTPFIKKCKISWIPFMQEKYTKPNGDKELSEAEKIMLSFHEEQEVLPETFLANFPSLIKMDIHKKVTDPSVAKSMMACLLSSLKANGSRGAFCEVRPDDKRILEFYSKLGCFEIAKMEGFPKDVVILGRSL
Format: biochemical
Protocol: EXAMPLE B01: HUMAN O-GLCNACASE ENZYME INHIBITION ASSAY
5 μl of the appropriate concentration of a solution of inhibitor in Mcllvaine's Buffer (pH 6.5) in 2% DMSO (for a dose response curve calculation) is added into each well of a 384-well plate (Greiner, 781900). Then, 20 nM of His-Tagged hOGA and 10 μM of FL-GlcNAc (Fluorescein mono-beta-D-(2-deoxy-2-N-acetyl) glucopyranoside; Marker Gene Technologies Inc, M1485) were added to the 384-well plate for a final volume of 20 μl. After incubation for 60 min at room temperature, the reaction was terminated by the addition of 10 μL of stop buffer (200 mM glycine, pH 10.75). The level of fluorescence (λexc 485 nm; (λemm 520 nm) was read on a PHERAstar machine. The amount of fluorescence measured was plotted against the concentration of inhibitor to produce a sigmoidal dose response curve to calculate an IC50. All individual data was corrected by subtraction of the background (Thiamet 3 uM=100% inhibition) whilst 0.5% DMSO was considered as the control value (no inhibition).

Compound	IC50
CC(=O)Nc1ncc(CN2CCc3nc(N)sc3CC2)s1 (racemic) [Example 151, N-(5-((2-AMINO-4,5,7,8-TETRAHYDRO-6H-THIAZOLO[4,5-D]AZEPIN-6-YL)METHYL)THIAZOL-2-YL)ACETAMIDE]	50 to 200 nM
CC(=O)Nc1nc2c(s1)CN(C(C)c1ccc3scnc3c1)CCC2 (racemic) [Example 152]	200 to 1000 nM
CC(=O)Nc1ncc(CN2CCc3nncn3CC2)s1 (racemic) [Example 154]	< 50 nM
CC(c1ccc2scnc2c1)N1CCc2nc[nH]c2CC1 (racemic) [Example 161]	50 to 200 nM
CC(c1ccc2scnc2c1)N1CCCc2nn(C)cc2C1 (racemic) [Example 165, 5-(1-(2-METHYL-2,6,7,8-TETRAHYDROPYRAZOLO[4,3-C]AZEPIN-5(4H)-YL)ETHYL)BENZO[D]THIAZOLE]	200 to 1000 nM
CC(=O)Nc1nc2c(s1)CCN(C(C)c1ccc3scnc3c1)CC2 (single isomer, unassigned) [Example 162]	< 50 nM
CC(=O)Nc1nc2c(s1)CCN(C(C)c1ccc3scnc3c1)CC2 (single isomer, unassigned) [Example 163]	200 to 1000 nM

Further lines, results first:

IC50	Compound
< 50 nM	CC(c1ccc2scnc2c1)N1CCc2cn(C)nc2CC1 (racemic) [Example 1, 5-(1-(2-METHYL-4,5,7,8-TETRAHYDROPYRAZOLO[3,4-D]AZEPIN-6(2H)-YL)ETHYL)BENZO[D]THIAZOLE]
< 50 nM	Cc1nc2c(s1)CCN(C(C)c1ccc3scnc3c1)CC2 (racemic) [Example 14, 6-(1-(BENZO[D]THIAZOL-5-YL)ETHYL)-2-METHYL-5,6,7,8-TETRAHYDRO-4H-THIAZOLO[4,5-D]AZEPINE]
< 50 nM	CC(=O)Nc1nc2c(s1)CCN(C(C)c1ccc3scnc3c1)CC2 (racemic) [Example 16]
< 50 nM	Cc1nc2c(s1)CCN(C(C)c1ccc3c(c1)OCC3)CC2 (racemic) [Example 20, 6-(1-(2,3-DIHYDROBENZOFURAN-6-YL)ETHYL)-2-METHYL-5,6,7,8-TETRAHYDRO-4H-THIAZOLO[4,5-D]AZEPINE]
< 50 nM	CC(=O)Nc1ncc(CN2CCc3cn(C)nc3CC2)s1 (racemic) [Example 23, N-(5-((2-METHYL-4,5,7,8-TETRAHYDROPYRAZOLO[3,4-D]AZEPIN-6(2H)-YL)METHYL)THIAZOL-2-YL)ACETAMIDE]
< 50 nM	CC(=O)Nc1ncc(CN2CCc3nc(C)sc3CC2)s1 (racemic) [Example 26, N-(5-((2-METHYL-4,5,7,8-TETRAHYDRO-6H-THIAZOLO[4,5-D]AZEPIN-6-YL)METHYL)THIAZOL-2-YL)ACETAMIDE]
< 50 nM	CC(c1ccc2scnc2c1)N1CCc2nn(C)c(-c3ccccc3)c2CC1 (racemic) [Example 46, 5-(1-(2-METHYL-3-PHENYL-4,5,7,8-TETRAHYDROPYRAZOLO[3,4-D]AZEPIN-6(2H)-YL)ETHYL)BENZO[D]THIAZOLE]
< 50 nM	CC(c1ccc2scnc2c1)N1CCc2c(-c3ccccc3)nn(C)c2CC1 (racemic) [Example 47, 5-(1-(1-METHYL-3-PHENYL-4,5,7,8-TETRAHYDROPYRAZOLO[3,4-D]AZEPIN-6(1H)-YL)ETHYL)BENZO[D]THIAZOLE]
< 50 nM	CC(c1ccc2scnc2c1)N1CCc2c([Si](C)(C)C)nn(C)c2CC1 (racemic) [Example 48, 5-(1-(1-METHYL-3-(TRIMETHYLSILYL)-4,5,7,8-TETRAHYDROPYRAZOLO[3,4-D]AZEPIN-6(1H)-YL)ETHYL)BENZO[D]THIAZOLE]
